Where a chain is given by its changes, count along the chain named.
Key:
malic enzyme = molecular target: T1, malic enzyme (Rattus norvegicus, UniProt P13697); settings: cited from earlier work
T1 sequence (P13697 1-572): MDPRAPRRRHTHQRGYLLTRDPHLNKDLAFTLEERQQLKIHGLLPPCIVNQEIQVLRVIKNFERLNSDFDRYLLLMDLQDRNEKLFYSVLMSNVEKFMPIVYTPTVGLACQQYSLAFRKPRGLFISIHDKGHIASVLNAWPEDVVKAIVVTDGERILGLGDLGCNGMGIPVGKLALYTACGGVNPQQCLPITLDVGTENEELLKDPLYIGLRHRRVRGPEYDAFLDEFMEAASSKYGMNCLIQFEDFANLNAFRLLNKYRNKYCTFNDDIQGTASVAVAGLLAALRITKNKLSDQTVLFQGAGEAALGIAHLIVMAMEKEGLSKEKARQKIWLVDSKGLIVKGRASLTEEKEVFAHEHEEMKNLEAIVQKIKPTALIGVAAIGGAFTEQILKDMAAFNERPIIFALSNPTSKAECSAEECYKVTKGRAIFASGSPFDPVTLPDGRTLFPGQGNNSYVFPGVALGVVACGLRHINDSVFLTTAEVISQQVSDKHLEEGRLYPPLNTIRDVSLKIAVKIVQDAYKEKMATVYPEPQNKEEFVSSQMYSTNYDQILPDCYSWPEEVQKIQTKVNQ

[1] = molecular target: E. coli aspartate kinase LysC variant E119G S345L, SEQ ID NO: 45 (Escherichia coli, UniProt P08660, E119G/S345L); assay: Lysine inhibition of malate kinase activity, LysC E119G S345L; type: biochemical; settings: elevated lysine concentrations
Chain of E. coli aspartate kinase LysC variant E119G S345L, SEQ ID NO: 45 (P08660 whole entry E119G/S345L): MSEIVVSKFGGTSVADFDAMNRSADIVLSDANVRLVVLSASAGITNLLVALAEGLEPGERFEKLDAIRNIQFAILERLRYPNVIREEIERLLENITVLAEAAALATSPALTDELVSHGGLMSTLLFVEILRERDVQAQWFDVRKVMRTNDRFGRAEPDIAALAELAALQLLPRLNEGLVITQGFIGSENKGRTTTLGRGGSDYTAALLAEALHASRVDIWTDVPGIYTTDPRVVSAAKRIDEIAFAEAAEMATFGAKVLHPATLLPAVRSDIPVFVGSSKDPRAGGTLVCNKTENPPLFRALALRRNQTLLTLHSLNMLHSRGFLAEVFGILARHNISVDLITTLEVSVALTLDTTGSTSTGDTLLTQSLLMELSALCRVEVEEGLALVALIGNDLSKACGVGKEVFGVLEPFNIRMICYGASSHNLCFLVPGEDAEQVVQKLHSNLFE
Procedure: (§1) The assay mixture contained 50 mM Hepes (pH 7.5), 50 mM KCl, 5 mM MgCl2, 0.24 mM NADH, 0.96 mM ATP, 0.96 mM PEP, 9 μg/mL of lactate dehydrogenase (Sigma, L2500), 12.4 μg/mL pyruvate kinase (Sigma, P1506), and appropriate amounts of purified aspartate (malate) kinase. Reactions were started by adding 50 mM (L)-aspartate or (L)-malate. Enzymatic assays were carried out at 30° C. in 96-well flat bottomed microtiter plates in a final volume of 250 μL. The reactions were followed by the characteristic absorption of NADH at 340 nm in a microplate reader (BioRad 680XR).
(§2) Expression and purification of enzymes: Protein expression for the His-tagged enzymes LysC E119G, LysC E119G E250K, LysC E119G T344M, LysC E119G S345L, LysC E119G T352I was carried out as described in Example 1.
(§3) Enzymatic assay: Malate kinase activities were assayed as described in Example 1. Lysine concentration in the reaction buffer was varied.

[2] = molecular target: E. coli aspartate kinase LysC variant E119G E250K, SEQ ID NO: 39 (Escherichia coli, UniProt P08660, E119G/E250K); assay: Lysine inhibition of malate kinase activity, LysC E119G E250K; type: biochemical; settings: elevated lysine concentrations
Chain of E. coli aspartate kinase LysC variant E119G E250K, SEQ ID NO: 39 (P08660 whole entry E119G/E250K): as the sequence (P08660 whole entry E119G/S345L) above, with E250K, L345S counted along it
Procedure: as §1, §2, §3

[3] = molecular target: E. coli aspartate kinase LysC variant E119G T344M, SEQ ID NO: 41 (Escherichia coli, UniProt P08660, E119G/T344M); assay: Lysine inhibition of malate kinase activity, LysC E119G T344M; type: biochemical; settings: elevated lysine concentrations
Chain of E. coli aspartate kinase LysC variant E119G T344M, SEQ ID NO: 41 (P08660 whole entry E119G/T344M): as the sequence (P08660 whole entry E119G/S345L) above, with T344M, L345S counted along it
Procedure: as §1, §2, §3

[4] = molecular target: T2, Metallosphaera sedula succinic semialdehyde reductase Ms-SSR variant H39R N43H, SEQ ID NO: 81 (Metallosphaera sedula, UniProt A4YGN0, H39R/N43H); assay: Malate semialdehyde reductase assay, Ms-SSR H39R N43H; type: biochemical; settings: pH 7.5, 30° C.
T2 sequence (A4YGN0 1-360 H39R/N43H): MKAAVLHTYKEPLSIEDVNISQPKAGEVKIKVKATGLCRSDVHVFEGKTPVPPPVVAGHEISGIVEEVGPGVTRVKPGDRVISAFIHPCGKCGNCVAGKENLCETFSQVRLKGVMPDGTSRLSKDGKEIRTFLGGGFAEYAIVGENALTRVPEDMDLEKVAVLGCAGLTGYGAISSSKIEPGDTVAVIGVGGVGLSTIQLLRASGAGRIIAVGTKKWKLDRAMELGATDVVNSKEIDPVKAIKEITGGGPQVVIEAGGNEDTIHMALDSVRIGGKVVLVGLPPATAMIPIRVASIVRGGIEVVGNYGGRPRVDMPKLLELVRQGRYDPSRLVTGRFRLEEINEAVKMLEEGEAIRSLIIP
Procedure: (§4) Test for Malate Semialdehyde Reductase Activity: Reaction: (L)-Malate semialdehyde+NAD(P)H→(L)-2,4-dihydroxybutyric acid+NAD(P)
(§5) The assay mixture contained 200 mM Hepes (pH 7.5), 50 mM KCl, 5 mM MgCl2, 0.24 mM NADH or NADPH, and appropriate amounts of purified enzyme. Reactions were started by adding 10 mM (L)-malate semialdehyde (malate semialdehyde was prepared freshly for each test, see Example 4). Enzymatic assays were carried out at 30° C. in 96-well flat bottomed microtiter plates in a final volume of 250 μL. The reactions were followed by the characteristic absorption of NAD(P)H at 340 nm in a microplate reader (BioRad 680XR).
(§6) Site-directed mutagenesis was carried out using the oligonucleotide pairs listed in Table 8 and the pMs-SSR plasmid as the template. Point mutations to change the amino acid sequences were introduced by PCR (Phusion 1U, HF buffer 20% (v/v), dNTPs 2.5 mM, direct and reverse primers 1 μM each, template plasmid 200 ng, water). When possible, plasmids created by PCR contained new restriction sites (introduced using silent mutations) in addition to the functional mutation to facilitate identification of mutated clones. The PCR products were digested by DpnI at 37° C. for 1 h to remove template DNA, and transformed into NEB 5-alpha competent E. coli cells (NEB). […]

[5] = molecular target: T3, Metallosphaera sedula succinic semialdehyde reductase Ms-SSR variant N43H, SEQ ID NO: 227 (Metallosphaera sedula, UniProt A4YGN0, N43H); assay: Malate semialdehyde reductase assay, Ms-SSR N43H; type: biochemical; settings: pH 7.5, 30° C.
T3 sequence (A4YGN0 1-360 N43H): T2 sequence (A4YGN0 1-360 H39R/N43H) with R39H
Procedure: as §4, §5, §6

[6] = molecular target: T4, Metallosphaera sedula succinic semialdehyde reductase Ms-SSR variant H39R, SEQ ID NO: 225 (Metallosphaera sedula, UniProt A4YGN0, H39R); assay: Malate semialdehyde reductase assay, Ms-SSR H39R; type: biochemical; settings: pH 7.5, 30° C.
T4 sequence (A4YGN0 1-360 H39R): T2 sequence (A4YGN0 1-360 H39R/N43H) with H43N
Procedure: as §4, §5, §6

[7] = molecular target: T5, Metallosphaera sedula succinic semialdehyde reductase Ms-SSR, wild type, SEQ ID NO: 76 (Metallosphaera sedula, UniProt A4YGN0); assay: Malate semialdehyde reductase assay, Ms-SSR wild type; type: biochemical; settings: pH 7.5, 30° C.
T5 sequence (A4YGN0 1-360): T2 sequence (A4YGN0 1-360 H39R/N43H) with R39H, H43N
Procedure: as §4, §5

O=C(O)C(O)CCO (centres unmarked) [DHB, 2,4-dihydroxybutyric acid]
Mode of inhibition of malic enzyme (malic enzyme): competitive inhibitor

NCCCC[C@H](N)C(=O)O [lysine]
sensitivity of malate kinase activity to lysine [1]: largely insensitive
sensitivity of malate kinase activity to lysine [2]: largely insensitive
sensitivity of malate kinase activity to lysine [3]: largely insensitive

O=CC[C@H](O)C(=O)O [malate semialdehyde, (L)-malate semialdehyde]
Maximum activity [4]: 4.7 μmol/(min* mgprot)
Maximum activity [5]: 4.3 μmol/(min* mgprot)
Maximum activity [6]: 1.7 μmol/(min* mgprot)
Maximum activity [7]: 4.9 μmol/(min* mgprot)

From US10358663B2, “Method of production of 2,4-dihydroxybutyric acid” (ADISSEO FRANCE S.A.S., priority 2010, dated 2019)
